Measured values as given in publication PMC11861906, “Structural basis for lipid-mediated activation of G protein-coupled receptor GPR55” (Nature Communications, 2025).

Tests used:
Type in all cases: cell-based
[1] = target: wt GPR55 (Gα13) (Homo sapiens, UniProt Q9Y2T6); assay: BRET² G protein dissociation assay, wt GPR55 with Gα13; settings: wt GPR55, Gα13
Description: (§1) To validate the functionality of the GPR55 cryo-EM construct, we conducted bioluminescence resonance energy transfer 2 (BRET²)-based G protein dissociation assays[46],[47] using an engineered heterotrimeric G13 protein. The N-terminal GFP fusion of the receptor was additionally modified with a G67A mutation to disrupt fluorescence properties. We employed human embryonic kidney (HEK) cells overexpressing wt or mutant GPR55 together with Gβ3, Gγ9-GFP, and Gα13 tagged with Renilla luciferase 8 (Rluc8).
(§2) G protein dissociation assays were performed according to the original protocols of the TRUPATH BRET² assay[47],[87] but with subtle modifications as previously described[61],[88],[89]. All reagents and cells were obtained from Thermo Fisher Scientific unless indicated otherwise. The coding sequences for the G protein biosensors[47] (Gα12-Rluc8, Gα13-Rluc8, wt Gβ3, and Gγ9-GFP), the wt GPR55, the construct used for cryo-EM (with GFP bearing a G67A mutation to disrupt fluorescence properties[48] for BRET² assays), GPR55 binding pocket mutants (G152^4.56F, G152^4.56W, N171^ECL2Q, N171^ECL2A, T176^5.33A, R253^6.62A), and the wt TBXA2R were codon-optimized for Homo sapiens, gene-synthesized, and sub-cloned into pcDNA^TM3.1(+) between NheI and HindIII restriction sites by GeneArt (Thermo Fisher Scientific). […] Freshly grown cells were washed with Dulbecco’s Balanced Salt Solution (DPBS, cat. #14200075) and detached using trypsin-ethylenediaminetetraacetic acid (trypsin-EDTA) (cat. #25300-062). Then, the cells were reconstituted to 500,000 cells per mL with fresh medium, and 1,000,000 cells were seeded into each well of a 6-well plate. After 3 h incubation at 37 °C and 5% CO2, adherent cells were transfected with 600 ng DNA (1:1:1:1 ratio of plasmid DNA for GPR55, wt Gβ3, Gγ9-GFP, and Gα12-Rluc8 or Gα13-Rluc8). Plasmid DNA was mixed with 1.5 µL Lipofectamine^TM 2000 (cat. #11668027) in Opti-MEM^TM medium (cat. #31985062) and incubated for 20 min. Then, the mixture was added to each well of the 6-well plate following 24 h incubation at 37 °C and 5% CO2. Transfected cells were washed with DPBS, detached using EDTA (Versene, cat. #15040066), and reconstituted into fresh medium at 500,000 cells mL^−1. From this suspension, 50,000 cells were seeded into each well of a white-bottom 96-well plate (Nunc^TM MicroWell^TM 96 wells, cat. #136101) following overnight incubation at 37 °C and 5% CO2. Then, the adherent cells were washed with assay medium [Hank’s balanced salt solution (HBSS, cat. #14065056) plus 20 mM HEPES pH 7.4 (cat. #15630056)] and finally reconstituted into 50 µL of the same medium. […] Methoxy e-Coelenterazine was used as luciferase substrate (Prolume Purple, NanoLight Technology, cat. #369), reconstituted at 1 mM in methanol and diluted to 37.5 µM with assay buffer (7.5 µM final assay concentration). The assay was started by the addition of 20 µL luciferase substrate to each well of the assay plate using a Multidrop^TM Combi reagent dispenser (Thermo Fisher Scientific), followed by 5 min incubation at room temperature. Then, 30 µL of agonist dilutions or DMSO control was added (final DMSO concentration 1.5%), followed by an additional 5 min incubation at room temperature. BRET² measurements were performed with a PHERAstar® FSX microplate reader (BMG LABTECH) using a BRET² filter (donor emission 370–450 nm, acceptor emission 500–530 nm) at the maximum fluorescence gain of 3600. BRET² ratios were calculated by dividing GFP emission signals from Rluc8 emission counts. Buffer-DMSO controls were subtracted from each data point to calculate ΔBRET² ratios.

[2] = target: GPR55 cryo-EM construct (Gα13) (Homo sapiens, UniProt Q9Y2T6); assay: BRET² G protein dissociation assay, GPR55 cryo-EM construct (GFP G67A) with Gα13; settings: Cryo-EM-G67A-G13
Description: as §1, §2

[3] = target: GPR55 mutant T176A (Gα13) (Homo sapiens, UniProt Q9Y2T6, T176A); assay: BRET² G protein dissociation assay, GPR55 T176A with Gα13
Description: as §1, §2

[4] = target: GPR55 mutant N171A (Gα13) (Homo sapiens, UniProt Q9Y2T6, N171A); assay: BRET² G protein dissociation assay, GPR55 N171A with Gα13
Description: as §1, §2

[5] = target: GPR55 mutant R253A (Gα13) (Homo sapiens, UniProt Q9Y2T6, R253A); assay: BRET² G protein dissociation assay, GPR55 R253A with Gα13
Description: as §1, §2

- G protein activation at GPR55-transfected cells (in words) [1]: inactive
- BRET2 response, Mean (plotted, Fig. S4) ([2]; concentration 10 pM): 0.00025
- BRET2 response, Mean (plotted, Fig. S4) ([2]; concentration 30 pM): -0.003725
- BRET2 response, Mean (plotted, Fig. S4) ([2]; concentration 100 pM): -0.000225
- BRET2 response, Mean (plotted, Fig. S4) ([2]; concentration 300 pM): 0.0002
- BRET2 response, Mean (plotted, Fig. S4) ([2]; concentration 1e-9 M): -7.5e-5
- BRET2 response, Mean (plotted, Fig. S4) ([2]; concentration 3e-9 M): 0.0017
- BRET2 response, Mean (plotted, Fig. S4) ([2]; concentration 1e-8 M): -0.0133
- BRET2 response, Mean (plotted, Fig. S4) ([2]; concentration 3e-8 M): 0.000825
- BRET2 response, Mean (plotted, Fig. S4) ([2]; concentration 1e-7 M): 0.0026
- BRET2 response, Mean (plotted, Fig. S4) ([2]; concentration 3e-7 M): 0.003275
- BRET2 response, Mean (plotted, Fig. S4) ([2]; concentration 1e-6 M): 0.00345
- Mean (plotted) BRET² response, GPR55-T176A-G13 ([3]; Concentration 10 pM): -0.0049
- Mean (plotted) BRET² response, GPR55-T176A-G13 ([3]; Concentration 30 pM): 0.00215
- Mean (plotted) BRET² response, GPR55-T176A-G13 ([3]; Concentration 100 pM): 0.0004
- Mean (plotted) BRET² response, GPR55-T176A-G13 ([3]; Concentration 300 pM): 0.0002029
- Mean (plotted) BRET² response, GPR55-T176A-G13 ([3]; Concentration 1e-9 M): 0.000161
- Mean (plotted) BRET² response, GPR55-T176A-G13 ([3]; Concentration 3e-9 M): 0.0002381
- Mean (plotted) BRET² response, GPR55-T176A-G13 ([3]; Concentration 1e-8 M): -0.0002172
- Mean (plotted) BRET² response, GPR55-T176A-G13 ([3]; Concentration 3e-8 M): 0.0004783
- Mean (plotted) BRET² response, GPR55-T176A-G13 ([3]; Concentration 1e-7 M): -0.0003604
- Mean (plotted) BRET² response, GPR55-T176A-G13 ([3]; Concentration 3e-7 M): 0.004625
- Mean (plotted) BRET² response, GPR55-T176A-G13 ([3]; Concentration 1e-6 M): 0.001082
- Mean (plotted) BRET² response, GPR55-T176A-G13 ([3]; Concentration 3e-6 M): -0.0002941
- Mean (plotted) BRET² response, GPR55-T176A-G13 ([3]; Concentration 1e-5 M): 0.003133
- Mean (plotted) BRET² response, GPR55-T176A-G13 ([3]; Concentration 3e-5 M): 0.0069
- Mean (plotted) BRET² response, GPR55-N171A-G13 ([4]; Concentration 10 pM): 0.0067
- Mean (plotted) BRET² response, GPR55-N171A-G13 ([4]; Concentration 30 pM): 0.0022
- Mean (plotted) BRET² response, GPR55-N171A-G13 ([4]; Concentration 100 pM): 0.008
- Mean (plotted) BRET² response, GPR55-N171A-G13 ([4]; Concentration 300 pM): -0.003007
- Mean (plotted) BRET² response, GPR55-N171A-G13 ([4]; Concentration 1e-9 M): 0.003546
- Mean (plotted) BRET² response, GPR55-N171A-G13 ([4]; Concentration 3e-9 M): 0.00299
- Mean (plotted) BRET² response, GPR55-N171A-G13 ([4]; Concentration 1e-8 M): -0.006252
- Mean (plotted) BRET² response, GPR55-N171A-G13 ([4]; Concentration 3e-8 M): 0.007492
- Mean (plotted) BRET² response, GPR55-N171A-G13 ([4]; Concentration 1e-7 M): 0.005274
- Mean (plotted) BRET² response, GPR55-N171A-G13 ([4]; Concentration 3e-7 M): 0.006727
- Mean (plotted) BRET² response, GPR55-N171A-G13 ([4]; Concentration 1e-6 M): 0.007007
- Mean (plotted) BRET² response, GPR55-N171A-G13 ([4]; Concentration 3e-6 M): 0.002553
- Mean (plotted) BRET² response, GPR55-N171A-G13 ([4]; Concentration 1e-5 M): -0.002868
- Mean (plotted) BRET² response, GPR55-N171A-G13 ([4]; Concentration 3e-5 M): -0.004916
- Mean (plotted) BRET² response, GPR55-R253A-G13 ([5]; Concentration 10 pM): 0.0024
- Mean (plotted) BRET² response, GPR55-R253A-G13 ([5]; Concentration 30 pM): 0.00435
- Mean (plotted) BRET² response, GPR55-R253A-G13 ([5]; Concentration 100 pM): 0.00475
- Mean (plotted) BRET² response, GPR55-R253A-G13 ([5]; Concentration 300 pM): -0.008328
- Mean (plotted) BRET² response, GPR55-R253A-G13 ([5]; Concentration 1e-9 M): 0.002391
- Mean (plotted) BRET² response, GPR55-R253A-G13 ([5]; Concentration 3e-9 M): 0.002546
- Mean (plotted) BRET² response, GPR55-R253A-G13 ([5]; Concentration 1e-8 M): 0.001532
- Mean (plotted) BRET² response, GPR55-R253A-G13 ([5]; Concentration 3e-8 M): 0.002853
- Mean (plotted) BRET² response, GPR55-R253A-G13 ([5]; Concentration 1e-7 M): 0.0008838
- Mean (plotted) BRET² response, GPR55-R253A-G13 ([5]; Concentration 3e-7 M): -0.0001645
- Mean (plotted) BRET² response, GPR55-R253A-G13 ([5]; Concentration 1e-6 M): -0.0002602
- Mean (plotted) BRET² response, GPR55-R253A-G13 ([5]; Concentration 3e-6 M): -0.001768
- Mean (plotted) BRET² response, GPR55-R253A-G13 ([5]; Concentration 1e-5 M): -0.005378
- Mean (plotted) BRET² response, GPR55-R253A-G13 ([5]; Concentration 3e-5 M): -0.00746
Structure (SMILES): CCCCC[C@H](O)/C=C/[C@@H]1[C@@H](C/C=C\CCCC(=O)O)[C@H]2CO[C@@H]1C2 [U-46619]
